{"source": "paper PMC8691750", "about": "“Euphorbia Factor L2 ameliorates the Progression of K/BxN Serum-Induced Arthritis by Blocking TLR7 Mediated IRAK4/IKKβ/IRF5 and NF-kB Signaling Pathways” (Frontiers in Pharmacology, 2021)", "tested_on": "TLR signalling pathway genes", "assay": "Toll-like Receptor Pathway PCR array of ankles", "assay_type": "in vivo, C57BL/6 mice", "conditions": "ankles", "protocol": "Total RNA was isolated from the right ankles using the TRIzol Reagent (Invitrogen) and purified with RNeasy Mini Kit and RNase-Free DNase Set (Qiagen). RNA quality was determined using a spectrophotometer and was reversely transcribed using Wcgene® mRNA cDNA kit. The complementary DNA was used on the Toll-like Receptor Pathway PCR Array plate (Wcgene® biotech, China).", "key": {"[1]": {"conditions": "STA mice + EFL2 i.p., individual mice EFL2-1 to EFL2-4"}, "[2]": {"conditions": "EFL2 40 mg/kg i.p. treated STA mice versus STA mice"}}, "note": "Several values for one entry are separate records, joined by “and”; a condition that tells them apart may be missing. Equal values may be shown once.", "data": [{"smiles": "C=C1C(OC(=O)c2ccccc2)CC2C(C=C(C)C(=O)C3(OC(C)=O)CC(C)C(OC(=O)c4ccccc4)C3C1OC(C)=O)C2(C)C", "note": "(stereo not shown) [EFL2, Euphorbia factor L2]", "values": [{"measurement": "Map2k4 relative expression to GAPDH", "setting": "[1]", "value": "0.009032 and 0.01171 and 0.005161 and 0.006054"}, {"measurement": "Myd88 relative expression to GAPDH", "setting": "[1]", "value": "0.0089 and 0.006533 and 0.004478 and 0.009066"}, {"measurement": "Nfkb2 relative expression to GAPDH", "setting": "[1]", "value": "0.008129 and 0.004372 and 0.004079 and 0.005983"}, {"measurement": "Nfkbia relative expression to GAPDH", "setting": "[1]", "value": "0.03111 and 0.02056 and 0.01675 and 0.03064"}, {"measurement": "Nfkbib relative expression to GAPDH", "setting": "[1]", "value": "0.005737 and 0.004539 and 0.002397 and 0.00388"}, {"measurement": "Nr2c2 relative expression to GAPDH", "setting": "[1]", "value": "0.009954 and 0.006912 and 0.004742 and 0.008167"}, {"measurement": "Peli1 relative expression to GAPDH", "setting": "[1]", "value": "0.02035 and 0.01296 and 0.0006428 and 0.01623"}, {"measurement": "Pglyrp1 relative expression to GAPDH", "setting": "[1]", "value": "0.0004159 and 0.002383 and 0.001422"}, {"measurement": "Ptgs2 relative expression to GAPDH", "setting": "[1]", "value": "0.000397 and 0.0002674 and 0.0003018 and 0.001434"}, {"measurement": "Rel relative expression to GAPDH", "setting": "[1]", "value": "0.004928 and 0.005486 and 0.005407"}, {"measurement": "Ticam1 relative expression to GAPDH", "setting": "[1]", "value": "0.006005 and 0.003329 and 0.002855 and 0.003921"}, {"measurement": "Tlr2 relative expression to GAPDH", "setting": "[1]", "value": "0.01307 and 0.007729 and 0.007046"}, {"measurement": "Tlr3 relative expression to GAPDH", "setting": "[1]", "value": "0.002217 and 0.00166 and 0.01628 and 0.001979"}, {"measurement": "Tlr4 relative expression to GAPDH", "setting": "[1]", "value": "0.00914 and 0.009306 and 0.004225 and 0.009146"}, {"measurement": "Tlr5 relative expression to GAPDH", "setting": "[1]", "value": "0.001998 and 0.001071 and 0.0002832 and 0.0007049"}, {"measurement": "Tlr7 relative expression to GAPDH", "setting": "[1]", "value": "0.0007393 and 0.00028 and 0.0006762"}, {"measurement": "Tlr8 relative expression to GAPDH", "setting": "[1]", "value": "0.001034 and 0.001839"}, {"measurement": "Tlr9 relative expression to GAPDH", "setting": "[1]", "value": "9.931e-5 and 0.0006069"}, {"measurement": "Tnf relative expression to GAPDH", "setting": "[1]", "value": "0.0005528 and 0.0004186 and 0.0004529"}, {"measurement": "Tnfaip3 relative expression to GAPDH", "setting": "[1]", "value": "0.001676 and 0.002239 and 0.001643 and 0.003028"}, {"measurement": "Tollip relative expression to GAPDH", "setting": "[1]", "value": "0.01333 and 0.008592 and 0.009094"}, {"measurement": "Traf6 relative expression to GAPDH", "setting": "[1]", "value": "0.01108 and 0.005865 and 0.005186 and 0.004909"}, {"measurement": "Ube2v1 relative expression to GAPDH", "setting": "[1]", "value": "0.02505 and 0.04987 and 0.0319 and 0.05212"}, {"measurement": "Becn1 fold change S40/SIA", "setting": "[2]", "value": 0.2727}, {"measurement": "Btk fold change S40/SIA", "setting": "[2]", "value": 0.3155}, {"measurement": "Casp8 fold change S40/SIA", "setting": "[2]", "value": 0.2393}, {"measurement": "Ccl2 fold change S40/SIA", "setting": "[2]", "value": 0.0326}, {"measurement": "Ccl11 fold change S40/SIA", "setting": "[2]", "value": 1.864}, {"measurement": "Cd86 fold change S40/SIA", "setting": "[2]", "value": 0.1925}, {"measurement": "Chuk fold change S40/SIA", "setting": "[2]", "value": 0.3313}, {"measurement": "Clec4e fold change S40/SIA", "setting": "[2]", "value": 0.0859}, {"measurement": "Cxcl10 fold change S40/SIA", "setting": "[2]", "value": 0.002337}, {"measurement": "Elk1 fold change S40/SIA", "setting": "[2]", "value": 0.3565}, {"measurement": "Fadd fold change S40/SIA", "setting": "[2]", "value": 0.1995}, {"measurement": "Hras1 fold change S40/SIA", "setting": "[2]", "value": 0.4915}, {"measurement": "Hspd1 fold change S40/SIA", "setting": "[2]", "value": 0.2339}, {"measurement": "IRF5 fold change S40/SIA", "setting": "[2]", "value": 0.3677}, {"measurement": "Il1b fold change S40/SIA", "setting": "[2]", "value": 0.0229}, {"measurement": "Il6 fold change S40/SIA", "setting": "[2]", "value": 0.03478}, {"measurement": "Il10 fold change S40/SIA", "setting": "[2]", "value": 0.2443}, {"measurement": "Ilr1 fold change S40/SIA", "setting": "[2]", "value": 0.09556}, {"measurement": "Irak2 fold change S40/SIA", "setting": "[2]", "value": 0.4814}, {"measurement": "Irak3 fold change S40/SIA", "setting": "[2]", "value": 0.4891}, {"measurement": "Irf1 fold change S40/SIA", "setting": "[2]", "value": 0.3319}, {"measurement": "Irf3 fold change S40/SIA", "setting": "[2]", "value": 0.3241}, {"measurement": "Jun fold change S40/SIA", "setting": "[2]", "value": 0.3678}, {"measurement": "Ly96 fold change S40/SIA", "setting": "[2]", "value": 0.3878}, {"measurement": "Map2k4 fold change S40/SIA", "setting": "[2]", "value": 0.8651}, {"measurement": "Myd88 fold change S40/SIA", "setting": "[2]", "value": 0.1447}, {"measurement": "Nfkb2 fold change S40/SIA", "setting": "[2]", "value": 0.2395}, {"measurement": "Nfkbia fold change S40/SIA", "setting": "[2]", "value": 0.2445}, {"measurement": "Nfkbib fold change S40/SIA", "setting": "[2]", "value": 0.4073}, {"measurement": "Nr2c2 fold change S40/SIA", "setting": "[2]", "value": 0.5521}, {"measurement": "Peli1 fold change S40/SIA", "setting": "[2]", "value": 0.462}, {"measurement": "Pglyrp1 fold change S40/SIA", "setting": "[2]", "value": 0.2161}, {"measurement": "Ptgs2 fold change S40/SIA", "setting": "[2]", "value": 0.03786}, {"measurement": "Rel fold change S40/SIA", "setting": "[2]", "value": 0.2762}, {"measurement": "Ticam1 fold change S40/SIA", "setting": "[2]", "value": 0.59}, {"measurement": "Tlr2 fold change S40/SIA", "setting": "[2]", "value": 0.1682}, {"measurement": "Tlr3 fold change S40/SIA", "setting": "[2]", "value": 0.7859}, {"measurement": "Tlr4 fold change S40/SIA", "setting": "[2]", "value": 0.5705}, {"measurement": "Tlr5 fold change S40/SIA", "setting": "[2]", "value": 0.188}, {"measurement": "Tlr7 fold change S40/SIA", "setting": "[2]", "value": 0.09461}, {"measurement": "Tlr8 fold change S40/SIA", "setting": "[2]", "value": 0.1573}, {"measurement": "Tlr9 fold change S40/SIA", "setting": "[2]", "value": 0.05745}, {"measurement": "Tnf fold change S40/SIA", "setting": "[2]", "value": 0.271}, {"measurement": "Tnfaip3 fold change S40/SIA", "setting": "[2]", "value": 0.2367}, {"measurement": "Tollip fold change S40/SIA", "setting": "[2]", "value": 0.6335}, {"measurement": "Traf6 fold change S40/SIA", "setting": "[2]", "value": 0.511}, {"measurement": "Ube2v1 fold change S40/SIA", "setting": "[2]", "value": 0.4284}]}]}
